Assay results reported in patent US7576059B2, “Peptide derivatives” (Novo Nordisk A/S, priority 1995, dated 2009).
Residues, ends and D or L forms follow the SMILES beside them.

Assay: Determination of lipophilicity relative to human insulin (k′rel) by RP-HPLC
Assay type: physicochemical
Details: pH 7.3
Description: The lipophilicity of peptides and peptide derivatives relative to human insulin, k′rel, was measured on a LiChrosorb RP18 (5 μm, 4×250 mm) HPLC column by isocratic elution at 40° C. using mixtures of A) 0.1 M sodium phosphate buffer, pH 7.3, containing 10% acetonitrile, and B) 50% acetonitrile in water as eluents. The elution was monitored by following the UV absorption of the eluate at 214 nm. Void time, t0, was found by injecting 0.1 mM sodium nitrate. Retention time for human insulin, tinsulin, was adjusted to at least 2t0 by varying the ratio between the A and B solutions. k′rel=(tderivative−t0)/(tinsulin−t0).

Compound | lipophilicity relative to human insulin, k′rel | lipophilicity relative to human insulin, k′rel (LiChrosorb RP18 HPLC, isocratic, 40° C., k′rel=(tderivative−t0)/(tinsulin−t0))
CCCC[C@H](NC=O)C(=O)N[C@@H](CC(C)C)C(=O)N[C@@H](Cc1ccccc1)C(=O)N[C@@H](CCCC)C(=O)N[C@@H](Cc1ccc(O)cc1)C(=O)N[C@@H](CCCCN)C(=O)O [For-Nle-Leu-Phe-Nle-Tyr-Lys-OH] (HELM PEPTIDE1{[O=C[*:2]].[Nle].L.F.[Nle].Y.K}$$$$V2.0) | 2.3 | 
CC(C)C[C@H](NC(=O)[C@H](Cc1ccccc1)NC(=O)CNC(=O)[C@@H](C)NC(=O)[C@@H](N)Cc1ccc(O)cc1)C(=O)N[C@@H](CCCCN)C(=O)O [H-Tyr-D-Ala-Gly-Phe-Leu-Lys-OH] (HELM PEPTIDE1{Y.[dA].G.F.L.K}$$$$V2.0) |  | 3.0×10^−3
